Measured values: patent publication US12102063B2 (SYNEXIS LLC, priority 2017, dated 2024)
Where two headings read alike, the source gives them in different places.

How the values were obtained:
[1] = tested on: broilers
Source text: The chicks hatched according to the methods of Examples 2 and 3 are shipped to a broiler facility and raised to maturity. No additional changes to grow-out methods are made. A total of about 4 million eggs are set per month and the saleable chicks are sent to the grow-out facility. […] The wholesale price of a broiler is currently estimated at $0.85 per pound. […] See the nationalchickencouncil.org available on the web.

[2] = tested on: Influenza A (H1N1)
Description: Glass slides (1″×3″) are ethanol-sanitized and autoclaved prior to testing. The slides (carriers) are placed into sterile plastic petri dishes until use. Aliquots (0.010 ml) of diluted stock Influenza A (H1N1) are aseptically spread over a 1″×1″ square area of the carrier slide to prepare a virus film.
Virus Control carriers are placed into an adjacent modular room with the lids removed. One additional glass slide (with no virus film) is also placed into each testing chamber to perform cytotoxicity and neutralization validation controls. Upon closure of the respective study contact times (T=60 min and T=120 min), duplicate carriers are removed from each testing chamber. Duplicate carriers are also removed from the control modular room at each time point. Duplicate time zero carriers are harvested and enumerated promptly by eluting the films with 2 ml of influenza Infection Medium. Serial dilutions (1:10) are performed and dilutions 10−^1 to 10−^5 are plated in quadruplicate onto Madin-Darby Canine Kidney (MDCK) cell monolayers prepared to suitable confluency. Cell culture assay trays are incubated at 35° C. on an orbital rotator (60 rotations/minute) for 60 minutes to facilitate viral-host adsorption. Trays are removed from incubation, and Influenza infection Media is pipetted into each well (−1.0 ml). The trays are incubated for 7 days. The assay trays are observed regularly for the presence of cytotoxicity, viral cytopathic effects, and contamination. At the end of 7 days, plates are scored and the Spearman-Karber Method is used to compute viral titers and levels of cytotoxicity.

[3] = tested on: Other blue green; settings: hatchery after DHP treatment
Source text: (§1) Hatcheries and chick production facilities are subject to heavy bacterial loads that are difficult to control. In addition to the animals themselves, there is a significant contamination of the facilities from the outside.

[4] = tested on: Total bacteria; settings: hatchery after DHP treatment
Source text: as §1

[5] = tested on: A. brasiliensis ATCC 16404
Description: 24 and 48 hour test cultures of S. aureus, as well as all A. brasiliensis and C. difficile are prepared with 0.1% Triton X-100. A 6 hour test culture of S. aureus is prepared with 5.0% Petal Bovine Serum and no Triton. Carriers (slides) are inoculated, in duplicate per test microorganism per condition, at a target concentration of 1×10^6 CPU/Carrier. Inoculated carriers are allowed to dry at ambient temperatures, and are then placed in respective conditions to endure contact times. Carriers for S. aureus endured contact times of 6, 24, and 48 hours. Carriers for A. brasiliensis endured contact times of 12, 24, and 48 hours. […] After respective contact times, carriers are harvested in 10.0 mL of D/E Broth, vortex mixed, diluted, and plated on the appropriate growth media for each microorganism. Environmental conditions are monitored using the Drager Rohrchen, and Drager Polytron methods described in Example 1. (Note: The limit of detection for this assay is 5.0 CPU. Samples with no detectable colonies are listed as <5.00E+OO in the table).

[6] = tested on: E. coli K12; settings: for Log10 reduction / Log10 reduction vs. Control: DHP (+)
[7] = tested on: MS2 Bacteriophage ATCC 15597-B1
[8] = tested on: bacteria on commercial hatching eggs; settings: DHP about 0.1 ppm, P=0.05
Description: As a control, sixty (60) commercial eggs are placed into a biosafety cabinet with the window closed. […] Sixty (60) commercial hatching eggs (test eggs) are placed in the room and both the control and test eggs are sampled, 10 eggs each, four times over the course of five (5) days at 0 hours, 24 hours, 72 hours, and 120 hours.
(§2) For sampling, individual eggs are placed in Whirl-Pak bags containing 10 milliliters (ml) of tryptic soy broth and manually rubbed in bag for 1 minute each. The washed eggs are discarded. One (1) ml from each sample is transferred to a deep well plate in triplicate and 10 fold serial dilutions performed with tryptic soy broth to 10−^11 dilution. The deep well plates are incubated for 24 hours at 37° C. After incubation, 5 microliters (5 μl) of each well is stamped onto a 96-well plate containing either tryptic soy agar (TSA) or MacConkey (Macx) agar. TSA agar is a non-selective, general purpose media. Macx agar is a selective, differential culture media for Gram-negative enteric bacilli. The agar plates are incubated 24 hours at 37° C. and then scored for bacterial growth.
Bacterial growth is scored using a Most Probable Number (MPN) calculation.

[9] = tested on: bacteria on commercial eggs
Description: as §2
A similar experiment is performed under egg cooler conditions. […] In this experiment, 300 commercial eggs are placed in the cooler and twenty (20) eggs are sampled, four times over five (5) days at 0 hours, 24 hours, 72 hours, and 120 hours as described above.

[10] = tested on: Aspergillus fumigatus; settings: hatchery after DHP treatment
[11] = Modular Room, 120 minutes contact

OO [DHP, dry hydrogen peroxide]
Mortality Rate ([1]; After DHP, grow-out facility): 2.2%
Net increase(# Chicks) ([1]; After DHP, per 4,000,000 eggs set): 62,000
Broilers raised ([1]; After DHP, per month): 3,161,678
reduction of mortality at the grow-out facility ([1]; chicks from DHP treated eggs): about 7.8%
Log10 ([2]; Hood Chamber, 60 minutes contact): >=2.62 Log10
Log10 ([2]; Hood Chamber, 120 minutes contact): >=1.87 Log10
% Reduction ([2]; Modular Room, 60 minutes contact): 87%
Log10 ([2]; Modular Room, 60 minutes contact, DHP 0.6-1.0 ppm): 0.87 Log10
% Reduction [2, 11]: 76%
Log10 [2, 11]: 0.62 Log10
Post [3]: 56
Reduction [4]: over 90%
Average CFU/Carrier ([5]; 12 Hours, Hood (Treated)): 2.18E+06 CFU/Carrier
Log Reduction compared to Control ([5]; 12 Hours, Hood (Treated)): 0.02 Log
Percent Reduction compared to Control ([5]; 12 Hours, Hood (Treated)): 4.40%
Average CFU/Carrier ([5]; 12 Hours, Room (Treated)): 3.10E+06 CFU/Carrier
Log Reduction compared to Control ([5]; 12 Hours, Room (Treated)): None
Percent Reduction compared to Control ([5]; 12 Hours, Room (Treated)): None
Average CFU/Carrier ([5]; 24 Hours, Hood (Treated)): 9.75E+05 CFU/Carrier
Log Reduction compared to Control ([5]; 24 Hours, Hood (Treated)): 0.29 Log
Percent Reduction compared to Control ([5]; 24 Hours, Hood (Treated)): 48.68%
Average CFU/Carrier ([5]; 24 Hours, Room (Treated)): 1.43E+06 CFU/Carrier
Log Reduction compared to Control ([5]; 24 Hours, Room (Treated)): 0.12 Log
Percent Reduction compared to Control ([5]; 24 Hours, Room (Treated)): 25.00%
Replicate CFU/Carrier ([5]; 24 Hours, Room (Treated)): 1.75E+06 CFU/Carrier
Average CFU/Carrier ([5]; 48 Hours, Hood (Treated)): 6.75E+05 CFU/Carrier
Log Reduction compared to Control ([5]; 48 Hours, Hood (Treated)): 0.28 Log
Percent Reduction compared to Control ([5]; 48 Hours, Hood (Treated)): 47.06%
Average CFU/Carrier ([5]; 48 Hours, Room (Treated)): 1.70E+06 CFU/Carrier
Log Reduction compared to Control ([5]; 48 Hours, Room (Treated)): None
Percent Reduction compared to Control ([5]; 48 Hours, Room (Treated)): None
Log10 reduction ([6]; 1 hour): >4.78 Log10
Log10 reduction vs. Control ([6]; 1 hour): 2.82 Log10
Log10 reduction ([6]; 2 hours): >4.79 Log10
Log10 reduction vs. Control ([6]; 2 hours): 1.71 Log10
elimination of aerosolized bacteria from the DHP treated space ([6]; within one hour): essentially eliminated
Log10 reduction ([7]; DHP (+), 1 hour): 3.54 Log10
Log10 reduction vs. Control ([7]; DHP (+), 1 hour): 2.70 Log10
elimination of airborne phage ([7]; within one hour): essentially eliminated
number of bacteria growing on TSA ([8]; after 72 hours): significantly reduced
number of bacteria growing on TSA ([8]; after 120 hours): significantly reduced
growth on Mac, treated group ([9]; 72 hours compared to 0 hours, p=0.001): significantly less growth
growth on Mac, treated group ([9]; 120 hours compared to 0 hours, p=0.0001): significantly more growth
growth on Mac, treated group ([9]; 120 hours compared to 0 hours, p=0.05): significantly less growth
Mac growth with treatment ([9]; egg cooler, 0-120 hours): low throughout
TSA growth with treatment ([9]; egg cooler, 0-120 hours): static until 120 hours
Post [10]: 1
